# Patent US9145354B2, “Pharmaceutical compounds” (priority 2011, dated 2015)
# Where two headings read alike, the source gives them in different places.
# Experiments:
# [1] = system: HCV subgenomic replicon in Huh-7 cells; assay: Replicon Assay (Example B), luciferase readout EC50; format: cell-based
# In short: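 Huh-7 cells carrying a luciferase-neo HCV subgenomic replicon (NS3–NS5b) were treated with semilog compound dilutions (0.1% DMSO final), in triplicate, for 72 h at 37° C. EC50 came from Bright-Glo luciferase signal as a proxy for replicon RNA; viability was read by Alamar blue.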
# [2] = system: Huh-7 cells persistently infected with the HCV subgenomic replicon; assay: Replicon Assay (Example B), Alamar Blue cytotoxicity CC50; format: cell-based; conditions: lower value of the cell pair
# In short: (§1)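 Huh-7 cells carrying a luciferase/neo HCV subgenomic replicon (NS3–NS5b) were treated with semilog compound dilutions in triplicate (0.1% DMSO) for 72 h at 37 °C. Viability came from Alamar blue resazurin-to-resorufin fluorescence (535/590 nm) for CC50. EC50 came from Bright-Glo luciferase luminescence as a proxy for HCV RNA.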
# full length NS3/4a = full length NS3/4a (Hepatitis C virus genotype 1b (isolate BK) (HCV), UniProt P26663); assay: NS3 Protease Assay (Example A), FRET-based; format: biochemical
# Chain of full length NS3/4a (P26663 1027-1657): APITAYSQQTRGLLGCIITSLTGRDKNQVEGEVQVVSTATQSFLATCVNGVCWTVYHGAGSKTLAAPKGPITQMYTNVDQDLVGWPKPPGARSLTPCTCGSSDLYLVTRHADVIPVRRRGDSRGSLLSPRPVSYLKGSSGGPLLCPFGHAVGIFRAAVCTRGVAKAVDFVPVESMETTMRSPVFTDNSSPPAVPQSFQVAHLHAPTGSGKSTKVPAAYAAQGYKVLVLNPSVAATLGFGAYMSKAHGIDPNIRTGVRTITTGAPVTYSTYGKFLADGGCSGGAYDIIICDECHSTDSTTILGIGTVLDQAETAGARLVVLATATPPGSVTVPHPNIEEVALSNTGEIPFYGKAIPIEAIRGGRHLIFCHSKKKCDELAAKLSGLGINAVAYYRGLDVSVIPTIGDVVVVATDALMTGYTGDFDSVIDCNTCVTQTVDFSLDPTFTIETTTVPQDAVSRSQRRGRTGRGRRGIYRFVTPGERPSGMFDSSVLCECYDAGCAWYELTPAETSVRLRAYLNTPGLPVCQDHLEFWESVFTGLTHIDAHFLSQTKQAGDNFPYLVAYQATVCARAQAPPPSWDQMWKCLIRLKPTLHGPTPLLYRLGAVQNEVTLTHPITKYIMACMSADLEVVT
# In short: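 Full-length NS3/4a, made in-house, with an NS4A/B-derived peptide substrate carrying QXL520 quencher and 5-FAMsp fluorophore. Buffer 50 mM Tris pH8, 20 mM DTT, 1% CHAPS, 10% glycerol, 5% DMSO. Fluorescence followed 30 min at room temperature; IC50 from initial rates of replicate curves.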
# [3] = Replicon Assay (Example B), Alamar Blue cytotoxicity CC50; format: cell-based; conditions: human, lower value of the cell pair
# In short: as §1
# [4] = system: compound resistant HCV replicon variants in replicon bearing cells; assay: Colony forming assay for compound resistant HCV replicon variants (Example C); format: cell-based; conditions: up to 10x EC50, 1 mg/ml geneticin, 24 days, coomasie blue staining
# Experimental: The existence of compound resistant HCV replicon quasispecies was analysed using colony forming assays, where the emergence of compound resistant HCV replicon variants can allow production sufficient replicon encoded neomycin for cellular survival in medium containing 1 mg/ml geneticin (Life Technologies). 4,000 replicon bearing cells were plated/well on 12 well plates, and allowed to adhere overnight. […] The medium used also contained 1 mg/ml geneticin. Plates were then incubated at 37° C. in an atmosphere of 5% CO2 and air for 24 days the medium/compound solution with 1 mg/ml gentamicin was replaced twice every 7 days, before staining surviving colonies with coomasie blue.
# [5] = HCV NS3 protease assay, full length NS3/4a, read-out: Assay A IC50 (μM) average
# [6] = Hepatitis C virus, Huh-7, replicon assay, luciferase readout, upper value of the cell pair, read-out: Assay B EC50
# [7] = read-out: IC50 against the protease activity of the full length NS3/4a
Structure (SMILES),"EC50 ([1]; replicon assay, luciferase readout, upper value of the cell pair, read-out: Assay B EC50) [nM]",CC50 [2] [nM],IC50 (full length NS3/4a; [5]) [µM],"EC50 ([1]; Hepatitis C virus, Huh-7, pre-determined EC50 used to set concentrations in combination studies, read-out: EC50 (replicon)) [nM]","EC50 [1, 6] [nM]",CC50 at 72 h [3] [nM],emergence of compound resistant colonies [4],IC50 (full length NS3/4a; [7]) [µM]
"CCC(NC1CCCC1C(N)=O)c1ccc(Cl)c(C(=O)c2ccc(N)nc2)c1F (racemic) [Example 126, 2-{[1-{3-[(6-aminopyridin-3-yl)carbonyl]-4-chloro-2-fluorophenyl}propyl]amino} cyclopentane-1-carboxamide]",91,> 3000,–,–,–,–,–,–
"CC[C@@H](N[C@@H](C)CC(N)=O)c1ccc(Cl)c(C(=O)c2ccccc2)c1F [Example 84, (3S)-3-{[(1R)-1-(3-benzoyl-4-chloro-2-fluorophenyl)-propyl]-amino}butanamide]",–,–,0.057,6,6,> 3000,prevented,–
"CC(C)C[C@@H](N[C@@H](C)CC(N)=O)c1ccc(Cl)c(C(=O)c2ccc(N)nc2)c1F [Example 269, (3S)-3-{[(1R)-1-{3-[(6-aminopyridin-3-yl)carbonyl]-4-chloro-2-fluorophenyl}-3-methylbutyl]amino}-butanamide]",–,–,1.1,–,70,> 3000,–,1 to 5
"C[C@@H](CC(N)=O)N[C@@H](c1ccc(Cl)c(C(=O)c2ccc3c(c2)OCC(=O)N3)c1F)C1CC1 [Example 270, (3S)-3-{[(R)-{4-chloro-2-fluoro-3-[(3-oxo-3,4-dihydro-2H-1,4-benzoxazin-7-yl)carbonyl]phenyl} (cyclopropyl)methyl]amino} butanamide]",–,–,0.18,–,6,> 3000,–,< 1
"CC[C@@H](N[C@@H](C)CC(N)=O)c1ccc(OC)c(C(=O)c2ccc(N)c(C)c2)c1F [Example 273, (3S)-3-{[(1R)-1-{3-[(4-amino-3-methylphenyl)carbonyl]-2-fluoro-4-methoxyphenyl}propyl]amino}butanamide]",–,–,0.14,–,27,> 3000,–,–
"COc1cc(C(=O)c2c(Cl)ccc([C@H](N[C@@H](C)CC(N)=O)C3CC3)c2F)ccc1C#N [Example 275, (3S)-3-{[(R)-{4-chloro-3-[(4-cyano-3-methoxyphenyl)carbonyl]-2-fluorophenyl}(cyclopropyl)methyl]amino}butanamide]",–,–,0.13,–,6.7,> 3000,–,–
"CC[C@@H](N[C@@H](C)CC(N)=O)c1ccc(OC)c(C(=O)c2cccc(C#N)c2)c1F [Example 276, (3S)-3-{[(1R)-1-{3-[(3-cyanophenyl)carbonyl]-2-fluoro-4-methoxyphenyl}propyl]amino}butanamide]",–,–,0.11,–,27,> 3000,–,–
"C[C@@H](CC(N)=O)N[C@H](CC1CC1)c1ccc(Cl)c(C(=O)c2ccc(N)nc2)c1F [Example 278, (3S)-3-{[(1R)-1-{3-[(6-aminopyridin-3-yl)carbonyl]-4-chloro-2-fluorophenyl}-2-cyclopropylethyl]amino} butanamide]",–,–,0.5,–,27,> 3000,–,–
"[2H]C([2H])([2H])C([2H])([2H])[C@@H](N[C@@H](C)CC(N)=O)c1ccc(Cl)c(C(=O)c2ccc3c(c2)OCC(=O)N3)c1F [Example 280, (3S)-3-{[(1R)-1-{4-chloro-2-fluoro-3-[(3-oxo-3,4-dihydro-2H-1,4-benzoxazin-7-yl)carbonyl]phenyl}(2,2,3,3,3-pentadeuteryl)propyl]amino} butanamide]",–,–,0.3,–,25,> 3000,–,–
